Values of other authors as cited in US20080175827A1, “PHOSPHOLIPASE C ZETA MEDIATED OOCYTE ACTIVATION, COMPOSITIONS FOR USE THEREIN, AND ASSAYS FOR DETECTING AND IDENTIFYING AGENTS FOR TREATING MALE INFERTILITY” (Michigan State University, priority 2006, published 2008).

Tests used:
bovine eggs = details: bovine oocytes; Malcuit and Fissore 2007
IP3R = details: mice; Jellerette et al. 2000

For `[Cl-].[Cl-].[Sr+2]` [strontium chloride], the “[Ca2+]i oscillations” value (bovine eggs) is listed as “does not induces [Ca^2+]i oscillations” and the IP3R downregulation (IP3R) is listed as “does not downregulate IP3R”.
